Measured values: ChEMBL document CHEMBL1121424, “Orally active cephalosporins and penicillins” (J Med Chem, 1980)
≈ marks a conversion by molar mass, not a printed value.

Legend:
Assay type in all cases: functional
[1] = test system: Enterobacter cloacae; experiment: Tested for inhibition of visible growth of Enterobacter cloacae
[2] = test system: Klebsiella aerogenes; experiment: Tested for inhibition of visible growth of Enterobacter aerogenes
[3] = test system: Escherichia coli; experiment: Tested for inhibition of visible growth of Escherichia coli
[4] = test system: Proteus mirabilis; experiment: Tested for inhibition of visible growth of Proteus mirabilis
[5] = Tested for inhibition of visible growth of Salmonella schottmuelleri
[6] = test system: Staphylococcus aureus; experiment: Tested for inhibition of visible growth of Staphylococcus aureus, benzyl-penicillin sensitive
[7] = test system: Streptococcus pyogenes; experiment: Tested for inhibition of visible growth of Streptococcus pyogenes
[8] = test system: Enterococcus faecalis; experiment: Tested for inhibition of visible growth of Streptococcus faecalis
[9] = test system: Streptococcus pneumoniae; experiment: Tested for inhibition of visible growth of Streptococcus pneumoniae
[10] = test system: Klebsiella pneumoniae; experiment: Tested for inhibition of visible growth of Klebsiella pneumoniae
[11] = test system: Staphylococcus aureus; experiment: Tested for inhibition of visible growth of Staphylococcus aureus
[12] = test system: Pseudomonas aeruginosa; experiment: Tested for inhibition of visible growth of Pseudomonas aeruginosa

| MIC [1] [µg/mL] | MIC [2] [µg/mL] | MIC [3] [µg/mL] | MIC [4] [µg/mL] | MIC [5] [µg/mL] | MIC [6] [µg/mL] | MIC [7] [µg/mL] | MIC [8] [µg/mL] | MIC [9] [µg/mL] | MIC [10] [µg/mL] | MIC [11] [µg/mL] | MIC [12] [µg/mL] | Structure (SMILES) |
| --- | --- | --- | --- | --- | --- | --- | --- | --- | --- | --- | --- | --- |
| > 200 | > 200 | 200 | > 200 | 100 | 0.8 | 0.8 | > 200 | 1.6 | 200 | 6.2 |  | CC1=C(C(=O)O)N2C(=O)C(NC(=O)C(N)c3ccc4c(c3)OCCO4)C2SC1 (mixture of isomers) |
| > 200 | > 200 | 100 (≈ 257 µM) | > 200 | 50 (≈ 128 µM) | 1.6 (≈ 4.11 µM) | 0.4 (≈ 1.03 µM) | > 200 | 3.1 (≈ 7.96 µM) | 50 (≈ 128 µM) | 3.1 (≈ 7.96 µM) |  | CC1=C(C(=O)O)N2C(=O)C(NC(=O)C(N)c3ccc4c(c3)CCO4)C2SC1 (racemic) |
| > 200 | > 200 | 100 (≈ 222 µM) | 100 (≈ 222 µM) | 25 (≈ 55.6 µM) | 3.1 (≈ 6.9 µM) | 0.2 (≈ 0.445 µM) | 200 (≈ 445 µM) | 0.2 (≈ 0.445 µM) | 50 (≈ 111 µM) | 3.1 (≈ 6.9 µM) |  | CC(=O)OCC1=C(C(=O)O)N2C(=O)C(NC(=O)C(N)c3cccc4c3OCO4)C2SC1 (racemic) |
| > 200 | > 200 | 50 (≈ 111 µM) | 100 (≈ 222 µM) | 12.5 (≈ 27.8 µM) | 3.1 (≈ 6.9 µM) | 0.2 (≈ 0.445 µM) | 200 (≈ 445 µM) | 0.4 (≈ 0.89 µM) | 25 (≈ 55.6 µM) | 6.2 (≈ 13.8 µM) |  | CC(=O)OCC1=C(C(=O)O)N2C(=O)C(NC(=O)C(N)c3ccc4c(c3)OCO4)C2SC1 (racemic) |
| 100 (≈ 237 µM) | 50 (≈ 118 µM) | 50 (≈ 118 µM) | 3.1 (≈ 7.34 µM) | 50 (≈ 118 µM) | 0.8 (≈ 1.89 µM) | 0.8 (≈ 1.89 µM) | > 100 | 0.2 (≈ 0.473 µM) | 100 (≈ 237 µM) | 12.5 (≈ 29.6 µM) | 3.1 (≈ 7.34 µM) | CC1(C)SC2C(NC(=O)C(C(=O)O)c3ccc4c(c3)OCO4)C(=O)N2C1C(=O)O (racemic) |
| > 200 | > 200 | 25 (≈ 55.5 µM) | 50 (≈ 111 µM) | 6.2 (≈ 13.8 µM) | 0.8 (≈ 1.78 µM) | 0.1 (≈ 0.222 µM) | > 200 | 0.1 (≈ 0.222 µM) | 25 (≈ 55.5 µM) | 3.1 (≈ 6.88 µM) |  | CC(=O)OCC1=C(C(=O)O)N2C(=O)C(NC(=O)C(O)c3ccc4c(c3)OCO4)C2SC1 (racemic) |
| > 200 | > 200 | 50 (≈ 111 µM) | 50 (≈ 111 µM) | 12.5 (≈ 27.9 µM) | 0.8 (≈ 1.78 µM) | 0.1 (≈ 0.223 µM) | > 200 | 0.1 (≈ 0.223 µM) | 50 (≈ 111 µM) | 3.1 (≈ 6.91 µM) |  | CC(=O)OCC1=C(C(=O)O)N2C(=O)C(NC(=O)C(O)c3ccc4c(c3)CCO4)C2SC1 (racemic) |
| 6.2 (≈ 16.4 µM) | 6.2 (≈ 16.4 µM) | 6.2 (≈ 16.4 µM) | 0.8 (≈ 2.11 µM) | 6.2 (≈ 16.4 µM) | 0.4 (≈ 1.06 µM) | 0.1 (≈ 0.264 µM) | > 100 | 0.4 (≈ 1.06 µM) | 6.2 (≈ 16.4 µM) | 25 (≈ 66.1 µM) | 0.8 (≈ 2.11 µM) | CC1(C)S[C@@H]2[C@H](NC(=O)C(C(=O)O)c3ccccc3)C(=O)N2[C@H]1C(=O)O (stereo partly specified) [CARBENICILLIN] |

| Structure (SMILES) | MIC [1] [µg/mL] | MIC [2] [µg/mL] | MIC [3] [µg/mL] | MIC [4] [µg/mL] | MIC [5] [µg/mL] | MIC [6] [µg/mL] | MIC [7] [µg/mL] | MIC [8] [µg/mL] | MIC [9] [µg/mL] | MIC [10] [µg/mL] | MIC [11] [µg/mL] | MIC [12] [µg/mL] |
| --- | --- | --- | --- | --- | --- | --- | --- | --- | --- | --- | --- | --- |
| CC(=O)OCC1=C(C(=O)O)N2C(=O)[C@@H](NC(=O)Cc3cccs3)[C@H]2SC1 [CEPHALOTHIN] | > 100 | 100 (≈ 252 µM) | 12.5 (≈ 31.5 µM) | 12.5 (≈ 31.5 µM) | 3.1 (≈ 7.82 µM) | 0.2 (≈ 0.504 µM) | 0.1 (≈ 0.252 µM) | 100 (≈ 252 µM) | 0.1 (≈ 0.252 µM) | 3.1 (≈ 7.82 µM) | 0.8 (≈ 2.02 µM) |  |
